Consider 9 compounds from patent US11142515B2, “Pyrazolyl-ureas as kinase inhibitors” (RESPIVERT LIMITED, priority 2014, dated 2021).

For one series, the system named is d-U937 cells. The series can be described thus: Cell viability: MTT assay in differentiated U937 cells. Format: cell-based, human. The settings on record: 10 μg/mL. The method, boiled down: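 Differentiated U937 cells exposed to compound at a final 10 μg/mL, either 4 h in 5% FCS RPMI1640 or 24 h in 10% FCS RPMI1640. MTT added for 1 h, formazan dissolved in DMSO, absorbance read at 550 nm; % viability loss relative to 0.5% DMSO vehicle, with increases shown as negative values.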
For orientation: Formazan colour is commonly taken as a measure of viable cells.

Series [1] deals with T1, p38 MAPKα isoform (MAPK14) (Homo sapiens, UniProt Q16539).
T1 construct: purchased Life Technologies
The series can be described thus: p38 MAPKα enzyme inhibition (Z-LYTE FRET). It is filed as biochemical. The conditions noted are these: Table 2A; read-out: IC50 Values for Enzyme Inhibition p38 MAPKα. In short, it runs like this:
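Recombinant human MAPK14 (40 ng/mL stock) was preincubated 2 h at RT with compound (stock dilutions 0.0012-40 μg/mL). The Z-LYTE FRET read-out used a MAPKAP-K2-derived peptide, and protease development for 1 h cleaved only non-phosphorylated peptide. Phosphorylation was calculated from the coumarin/fluorescein emission ratio.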

In a further series the target is T2, GSK 3α enzyme isoform (Homo sapiens, UniProt P49840).
T2 construct: purchased Life Technologies
Kind of series: GSK 3α enzyme inhibition (Z-LYTE FRET). Format: biochemical. The settings on record: Table 2A; read-out: IC50 Values for Enzyme Inhibition GSK3α. The method, boiled down: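 Z-LYTE FRET kinase assay: GSK3α protein (500 ng/mL stock) preincubated with compound (0.0012–40 μg/mL stocks) for 2 h at RT. FRET peptide (8 μM stock) and ATP (40 μM stock) added for 1 h at RT, then protease development for 1 h. Phosphorylation taken from the coumarin/fluorescein emission ratio.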

The next series addresses T3, Syk (Homo sapiens, UniProt P43405).
T3 construct: purchased Life Technologies
Kind of series: Syk enzyme inhibition (Z-LYTE FRET). Format: biochemical. The conditions noted are these: Table 2A. The method, boiled down: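 Enzyme (1000, 1400 or 2000 ng/mL stocks for c-Src, Hck, Syk respectively) preincubated 2 h at RT with compound (0.0012–40 μg/mL series), then FRET peptide plus ATP (800 μM c-Src; 60 μM Hck, Syk stocks) for 1 h. Protease development 1 h; phosphorylation from coumarin/fluorescein emission ratio.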

The next series addresses T4, Hck (Homo sapiens, UniProt P08631).
T4 construct: purchased Life Technologies
Kind of series: Hck enzyme inhibition (Z-LYTE FRET). Format: biochemical. The settings on record: Table 2A. Here is the method:
The enzyme inhibitory activities of compounds disclosed herein were determined by FRET using synthetic peptides labelled with both donor and acceptor fluorophores (Z-LYTE, Life Technologies, Paisley, UK).
The relevant enzyme (1000 ng/mL, 1400 ng/mL or 2000 ng/mL respectively, 2.5 μL) was incubated with the test compound (either 40 μg/mL, 12 μg/mL, 4 μg/mL, 1.2 μg/mL, 0.4 μg/mL, 0.12 μg/mL, 0.04 μg/mL, 0.012 μg/mL, 0.004 μg/mL or 0.0012 μg/mL, 2.5 μL each) for 2 h at RT. The FRET peptides (8 μM, 2.5 μL), and appropriate ATP solutions (2.5 μL, 800 μM for c-Src, and 60 μM ATP for HCK and Syk) were then added to the enzyme/compound mixtures and incubated for 1 h at RT. Development reagent (protease, 5 μL) was added for 1 h prior to detection in a fluorescence microplate reader (EnVision, Perkin Elmer).
In all cases, the site-specific protease cleaves non-phosphorylated peptide only and eliminates the FRET signal. Phosphorylation levels of each reaction were calculated using the ratio of coumarin emission (donor) over fluorescein emission (acceptor), for which low ratios indicate high phosphorylation and high ratios indicate low phosphorylation levels.

Series [2] deals with IL-8 release in d-U937 cells. The series can be described thus: LPS-induced IL-8 release in d-U937 cells. The settings on record: Homo sapiens, dU937, LPS 0.1 μg/mL 4 h. It is filed as cell-based. Here is the method:
U937 cells, a human monocytic cell line, were differentiated into macrophage-type cells by incubation with PMA (100-200 ng/mL) for 48 to 72 h. Cells were pre-incubated with final […] concentrations of test compound for 2 h and were then stimulated with LPS (0.1 μg/mL; from E. coli: O111:B4, Sigma) for 4 h. The supernatant was collected for determination of TNFα and IL-8 concentrations by sandwich ELISA (Duo-set, R&D systems). […] The relative 50% effective concentration (REC50) was determined from the resultant concentration-response curve. The inhibition of IL-8 production was calculated at each concentration of test compound by comparison with vehicle control.

Structures are written as SMILES. Bounds are passed on as bounds.

T4 sequence (P08631 22-526): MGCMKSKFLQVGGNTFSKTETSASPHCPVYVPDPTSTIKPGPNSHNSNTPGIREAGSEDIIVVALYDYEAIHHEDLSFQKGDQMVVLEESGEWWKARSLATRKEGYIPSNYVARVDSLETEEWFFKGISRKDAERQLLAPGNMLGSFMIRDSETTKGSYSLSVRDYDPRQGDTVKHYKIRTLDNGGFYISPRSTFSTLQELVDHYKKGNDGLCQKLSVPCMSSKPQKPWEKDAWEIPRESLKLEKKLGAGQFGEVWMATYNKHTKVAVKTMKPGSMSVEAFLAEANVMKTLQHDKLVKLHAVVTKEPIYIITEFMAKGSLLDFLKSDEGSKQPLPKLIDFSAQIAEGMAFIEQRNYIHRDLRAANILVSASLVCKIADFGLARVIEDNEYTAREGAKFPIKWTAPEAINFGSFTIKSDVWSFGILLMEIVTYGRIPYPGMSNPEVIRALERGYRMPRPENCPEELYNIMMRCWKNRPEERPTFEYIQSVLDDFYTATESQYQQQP
T1 sequence (Q16539 whole entry, canonical isoform): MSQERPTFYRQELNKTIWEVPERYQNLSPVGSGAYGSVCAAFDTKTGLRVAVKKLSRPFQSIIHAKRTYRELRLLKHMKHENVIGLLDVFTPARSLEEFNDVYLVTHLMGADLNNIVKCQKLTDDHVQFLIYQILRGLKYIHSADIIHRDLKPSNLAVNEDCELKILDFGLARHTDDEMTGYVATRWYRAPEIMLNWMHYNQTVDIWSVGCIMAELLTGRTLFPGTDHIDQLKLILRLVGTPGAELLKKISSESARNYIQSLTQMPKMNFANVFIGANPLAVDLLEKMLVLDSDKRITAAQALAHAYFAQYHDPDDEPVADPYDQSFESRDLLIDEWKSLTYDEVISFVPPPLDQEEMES
T2 sequence (P49840 whole entry, canonical isoform): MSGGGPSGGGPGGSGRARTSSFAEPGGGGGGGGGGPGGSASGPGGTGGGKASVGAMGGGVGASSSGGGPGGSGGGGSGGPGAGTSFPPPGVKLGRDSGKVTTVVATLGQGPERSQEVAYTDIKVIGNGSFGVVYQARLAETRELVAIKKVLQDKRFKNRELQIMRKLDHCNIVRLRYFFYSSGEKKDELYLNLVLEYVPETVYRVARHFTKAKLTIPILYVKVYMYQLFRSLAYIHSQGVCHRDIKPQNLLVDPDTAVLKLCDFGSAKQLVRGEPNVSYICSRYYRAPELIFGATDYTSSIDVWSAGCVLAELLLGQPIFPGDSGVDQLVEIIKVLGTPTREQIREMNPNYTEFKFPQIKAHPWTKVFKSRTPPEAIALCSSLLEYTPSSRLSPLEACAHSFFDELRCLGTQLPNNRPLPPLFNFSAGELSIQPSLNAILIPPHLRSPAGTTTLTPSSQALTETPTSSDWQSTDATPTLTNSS

Broadly, the IC50 is the concentration at which inhibition is half-maximal. Regarding `Cc1ccc(-n2nc(C(C)(C)C)cc2NC(=O)Nc2ccc(OCc3ccnc(Nc4cnccn4)c3)c3ccccc23)cc1C(F)(F)F` [Example 52], the “MTT Assay Cell viability at time point indicated in d-U937 Cells, 4 h” value (“MTT Assay Cell viability … in d-U937 Cells, 4 h” for short) in the series with d-U937 cells was “− (−ve and +ve indicate the value is below and above, respectively, the no significant effect threshold defined as 30% inhibition at 10 μg/mL at the time point indicated)”. In addition, in the series on d-U937 cells, the “MTT Assay Cell viability at time point indicated in d-U937 Cells, 24 h” value (from here on “MTT Assay Cell viability … 24 h”) is “− (−ve and +ve indicate the value is below and above, respectively, the no significant effect threshold defined as 30% inhibition at 10 μg/mL at the time point indicated)”. Moreover, the IC50 in series [1] was 116 nM; on GSK 3α enzyme isoform, greater than 15000 nM; against Syk, greater than 15000 nM; at Hck, 316 nM; in series [2], greater than 1500 nM.
Take `Cc1ccc(-n2nc(C(C)(C)C)cc2NC(=O)Nc2ccc(OCc3ccnc(Nc4cnc(C(=O)N5CCCC5)cn4)c3)c3ccccc23)cc1` [Example 36]: in the series with d-U937 cells, the “MTT Assay Cell viability … in d-U937 Cells, 4 h” value is “− (−ve and +ve indicate the value is below and above, respectively, the no significant effect threshold defined as 30% inhibition at 10 μg/mL at the time point indicated)”. The “MTT Assay Cell viability … 24 h” value in the series on d-U937 cells is “− (−ve and +ve indicate the value is below and above, respectively, the no significant effect threshold defined as 30% inhibition at 10 μg/mL at the time point indicated)”. In addition, the IC50 was 19 nM in series [1]; greater than 13800 nM on GSK 3α enzyme isoform; greater than 14400 nM on Syk; 48 nM at Hck; 2.8 nM in series [2].
As for `COc1ccc(-n2nc(C(C)(C)C)cc2NC(=O)Nc2ccc(OCc3ccnc(Nc4cnccn4)c3)c3ccccc23)cc1C` [Example 39], the “MTT Assay Cell viability … in d-U937 Cells, 4 h” value with d-U937 cells was “− (−ve and +ve indicate the value is below and above, respectively, the no significant effect threshold defined as 30% inhibition at 10 μg/mL at the time point indicated)”. Further, in the series with d-U937 cells, the “MTT Assay Cell viability … 24 h” value was “− (−ve and +ve indicate the value is below and above, respectively, the no significant effect threshold defined as 30% inhibition at 10 μg/mL at the time point indicated)”. Moreover, the IC50 in series [1] was 18 nM; at GSK 3α enzyme isoform, greater than 15900 nM; at Syk, greater than 15900 nM; at Hck, 31 nM; in series [2], 12.8 nM.
For the compound `Cc1ccc(-n2nc(C(C)(C)C)cc2NC(=O)Nc2ccc(OCc3ccnc(Nc4cncc(C#N)n4)c3)c3ccccc23)cc1` [Example 11], the “MTT Assay Cell viability … in d-U937 Cells, 4 h” value in the series with d-U937 cells was “− (−ve and +ve indicate the value is below and above, respectively, the no significant effect threshold defined as 30% inhibition at 10 μg/mL at the time point indicated)”. For the same compound, the “MTT Assay Cell viability … 24 h” value with d-U937 cells was “− (−ve and +ve indicate the value is below and above, respectively, the no significant effect threshold defined as 30% inhibition at 10 μg/mL at the time point indicated)”. The IC50 in series [1] is 52 nM; at GSK 3α enzyme isoform, greater than 16000 nM; against Syk, greater than 16000 nM; at Hck, greater than 8890 nM; in series [2], 12.5 nM.
Turning to `Cc1ccc(-n2nc(C(C)(C)C)cc2NC(=O)Nc2ccc(OCc3ccnc(Nc4cncc(C5CCCC5)n4)c3)c3ccccc23)cc1` [Example 48], in the series with d-U937 cells, the “MTT Assay Cell viability … in d-U937 Cells, 4 h” value was “− (−ve and +ve indicate the value is below and above, respectively, the no significant effect threshold defined as 30% inhibition at 10 μg/mL at the time point indicated)”. Also, the “MTT Assay Cell viability … 24 h” value in the series on d-U937 cells was “− (−ve and +ve indicate the value is below and above, respectively, the no significant effect threshold defined as 30% inhibition at 10 μg/mL at the time point indicated)”. The 50% inhibitory concentration (IC50) was 91 nM in series [1]; 4210 nM on GSK 3α enzyme isoform; greater than 15000 nM on Syk; 133 nM on Hck; 16.7 nM in series [2].
With `CC(C)(C)c1cc(NC(=O)Nc2ccc(OCc3ccnc(Nc4cncc(C5CC5)n4)c3)c3ccccc23)n(-c2ccc(CO)cc2)n1` [Example 25], in the series on d-U937 cells, the “MTT Assay Cell viability … in d-U937 Cells, 4 h” value is “− (−ve and +ve indicate the value is below and above, respectively, the no significant effect threshold defined as 30% inhibition at 10 μg/mL at the time point indicated)”. Also, the “MTT Assay Cell viability … 24 h” value with d-U937 cells was “+ (−ve and +ve indicate the value is below and above, respectively, the no significant effect threshold defined as 30% inhibition at 10 μg/mL at the time point indicated)”. The IC50 in series [1] was found to be 7 nM; at GSK 3α enzyme isoform, 523 nM; on Syk, 2220 nM; on Hck, 5 nM; in series [2] it was 5.8 nM.
Consider `COc1ccc(-n2nc(C(C)(C)C)cc2NC(=O)Nc2ccc(OCc3ccnc(Nc4cnccn4)c3)c3ccccc23)cc1` [Example 38], for which the “MTT Assay Cell viability … in d-U937 Cells, 4 h” value with d-U937 cells was “− (−ve and +ve indicate the value is below and above, respectively, the no significant effect threshold defined as 30% inhibition at 10 μg/mL at the time point indicated)”. Also, the “MTT Assay Cell viability … 24 h” value in the series on d-U937 cells is “− (−ve and +ve indicate the value is below and above, respectively, the no significant effect threshold defined as 30% inhibition at 10 μg/mL at the time point indicated)”. Moreover, the IC50 in series [1] is 14 nM; at GSK 3α enzyme isoform it was 5990 nM; at Syk, greater than 16300 nM; against Hck it was 60 nM; in series [2] it was 9.6 nM.
Consider `Cc1ccc(-n2nc(C(C)(C)C)cc2NC(=O)Nc2ccc(OCc3ccnc(Nc4cnc(CO)cn4)c3)c3ccccc23)cc1` [Example 10, 1-(3-(tert-Butyl)-1-(p-tolyl)-1H-pyrazol-5-yl)-3-(4-((2-((5-(hydroxymethyl)pyrazin-2-yl)amino)pyridin-4-yl)methoxy)naphthalen-1-yl)urea], for which the “MTT Assay Cell viability … in d-U937 Cells, 4 h” value with d-U937 cells was “− (−ve and +ve indicate the value is below and above, respectively, the no significant effect threshold defined as 30% inhibition at 10 μg/mL at the time point indicated)”. Besides, the “MTT Assay Cell viability … 24 h” value in the series with d-U937 cells is “− (−ve and +ve indicate the value is below and above, respectively, the no significant effect threshold defined as 30% inhibition at 10 μg/mL at the time point indicated)”. Moreover, the IC50 in series [1] is 8 nM; on GSK 3α enzyme isoform, greater than 15900 nM; against Syk, greater than 15900 nM; against Hck, 16 nM; in series [2] it was 15.3 nM.
`COCCNC(=O)c1cnc(Nc2cc(COc3ccc(NC(=O)Nc4cc(C(C)(C)C)nn4-c4csc(C)c4)c4ccccc34)ccn2)cn1` [Example 44]: the “MTT Assay Cell viability … in d-U937 Cells, 4 h” value in the series on d-U937 cells was “− (−ve and +ve indicate the value is below and above, respectively, the no significant effect threshold defined as 30% inhibition at 10 μg/mL at the time point indicated)”. Further, in the series with d-U937 cells, the “MTT Assay Cell viability … 24 h” value was “+ (−ve and +ve indicate the value is below and above, respectively, the no significant effect threshold defined as 30% inhibition at 10 μg/mL at the time point indicated)”. For the same compound, the IC50 in series [1] was 11 nM; on GSK 3α enzyme isoform, greater than 14200 nM; against Syk, greater than 14200 nM; against Hck, 58 nM; in series [2], 52.2 nM.
